Laboratory results reported in patent publication US11390616B2 (BRISTOL-MYERS SQUIBB COMPANY, priority 2015, dated 2022).

Target: T1, human APJ receptor (Homo sapiens, UniProt P35414)
T1 construct: expressed in transfected cells; host or cells: HEK293
T1 sequence (P35414 1-380): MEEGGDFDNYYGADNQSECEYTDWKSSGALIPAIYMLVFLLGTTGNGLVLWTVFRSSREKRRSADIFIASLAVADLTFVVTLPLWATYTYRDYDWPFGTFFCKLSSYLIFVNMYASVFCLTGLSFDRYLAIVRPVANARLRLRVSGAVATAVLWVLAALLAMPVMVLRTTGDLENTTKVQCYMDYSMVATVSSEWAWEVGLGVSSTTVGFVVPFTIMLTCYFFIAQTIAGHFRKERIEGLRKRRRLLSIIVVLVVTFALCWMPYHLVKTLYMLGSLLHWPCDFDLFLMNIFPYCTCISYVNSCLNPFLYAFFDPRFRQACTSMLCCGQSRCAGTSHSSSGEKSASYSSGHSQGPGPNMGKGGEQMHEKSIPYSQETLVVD
Test: Intracellular cAMP accumulation assay (APJ hcAMP, HTRF)
Type: cell-based
Conditions: HEK293 cells stably expressing human APJ receptor; inhibition of forskolin-mediated cAMP production; read-out: APJ cAMP Potency range
Description: Intracellular cAMP Accumulation Assay
HEK293 cells stably expressing human APJ receptor were used to assess the activity of compounds. Cultured cells were detached and resuspended in the cAMP Homogeneous Time-Resolved Fluorescence (HTRF) assay buffer (Cisbio cat; #62AM4PEJ). The assay was performed in 384-well assay plates (Perkin-Elmer; cat #6008289) according to assay protocol provided by the manufacturer. Serial dilutions of a compound together with assay buffer containing […] IBMX and 2 μM forskolin were added to each well containing 5,000 cells and incubated for 30 minutes at room temperature. Subsequently, cAMP D2 reagent was added in the lysis buffer followed by the EuK antibody (Cisbio; cat #62AM4PEJ) and incubated for 60 min. The fluorescence emission ratio was measured using fluorometer. The intracellular cAMP concentrations (compound-stimulated inhibition of forskolin-mediated cAMP production) were calculated by extrapolation from a standard curve using known cAMP concentrations. The EC50 values were obtained by fitting the data to a sigmoidal concentration-response curve with variable slope. The maximal achievable inhibition of forskolin-induced cAMP levels (Ymax) for each compound was expressed as relative percentage of inhibition attained using pyroglutamated apelin-13 ((Pyr1)apelin-13) peptide, which was set to 100%.
The examples disclosed below were tested in the APJ in vitro assays described above and were found having human APJ cyclic AMP (hcAMP) activity. The EC50 value of each compound is presented at the end of the example description.
The biological activity of the exemplified compounds of this invention determined by the assay described above is shown at the end of each example.

EC50 [nM] | Structure (SMILES)
0.01 to 10 | COc1cccc(OC)c1-n1c(CCC2CC2)nc(O)c(Cc2ccc(-n3ccccc3=O)cc2)c1=O [Example 41, 2-(2-cyclopropylethyl)-3-(2,6-dimethoxyphenyl)-6-hydroxy-5-{[4-(2-oxo-1,2-dihydropyridin-1-yl)phenyl]methyl}-3,4-dihydropyrimidin-4-one]
0.01 to 10 | CCCCc1nc(O)c(Cc2ccc(-n3ccc(Cl)cc3=O)cc2)c(=O)n1-c1c(OC)cccc1OC [Example 42, 2-butyl-5-{[4-(4-chloro-2-oxo-1,2-dihydropyridin-1-yl)phenyl]methyl}-3-(2,6-dimethoxyphenyl)-6-hydroxy-3,4-dihydropyrimidin-4-one]
0.01 to 10 | CCCCc1nc(O)c(Cc2ccc(-n3ccc(C)cc3=O)cc2)c(=O)n1-c1c(OC)cccc1OC [Example 43, 2-butyl-3-(2,6-dimethoxyphenyl)-6-hydroxy-5-{[4-(4-methyl-2-oxo-1,2-dihydropyridin-1-yl)phenyl]methyl}-3,4-dihydropyrimidin-4-one]
10 to 100 | CCCCc1nc(O)c(Cc2ccc(-c3ccc(C)nc3)cc2)c(=O)n1-c1c(OC)cccc1OC [Example 44, 2-butyl-3-(2,6-dimethoxyphenyl)-6-hydroxy-5-{[4-(6-methylpyridin-3-yl)phenyl]methyl}-3,4-dihydropyrimidin-4-one]
0.01 to 10 | CCCCc1nc(O)c(Cc2ccc(-c3ccccc3)cc2)c(=O)n1-c1c(OC)cccc1OC [Example 45, 5-({[1,1′-biphenyl]-4-yl}methyl)-2-butyl-3-(2,6-dimethoxyphenyl)-6-hydroxy-3,4-dihydropyrimidin-4-one]
0.01 to 10 | CCCCc1nc(O)c(Cc2ccc(-c3ccc(Cl)cn3)cc2)c(=O)n1-c1c(OC)cccc1OC [Example 46, 2-butyl-5-{[4-(5-chloropyridin-2-yl)phenyl]methyl}-3-(2,6-dimethoxyphenyl)-6-hydroxy-3,4-dihydropyrimidin-4-one]
0.01 to 10 | CCCCc1nc(O)c(Cc2ccc(-n3cc(F)ccc3=O)cc2)c(=O)n1-c1c(OC)cccc1OC [Example 47, 2-butyl-3-(2,6-dimethoxyphenyl)-5-{[4-(5-fluoro-2-oxo-1,2-dihydropyridin-1-yl)phenyl]methyl}-6-hydroxy-3,4-dihydropyrimidin-4-one]
0.01 to 10 | CCCCc1nc(O)c(Cc2ccc(-c3cccnc3OC)cc2)c(=O)n1-c1c(OC)cccc1OC [Example 48, 2-butyl-3-(2,6-dimethoxyphenyl)-6-hydroxy-5-{[4-(2-methoxypyridin-3-yl)phenyl]methyl}-3,4-dihydropyrimidin-4-one]
0.01 to 10 | CCCCc1nc(O)c(Cc2ccc(-n3cc(Cl)ccc3=O)cc2)c(=O)n1-c1c(OC)cccc1OC [Example 49, 2-butyl-5-{[4-(5-chloro-2-oxo-1,2-dihydropyridin-1-yl)phenyl]methyl}-3-(2,6-dimethoxyphenyl)-6-hydroxy-3,4-dihydropyrimidin-4-one]
0.01 to 10 | CCCCc1nc(O)c(Cc2ccc(-n3cc(C)ccc3=O)cc2)c(=O)n1-c1c(OC)cccc1OC [Example 50, 2-butyl-3-(2,6-dimethoxyphenyl)-6-hydroxy-5-{[4-(5-methyl-2-oxo-1,2-dihydropyridin-1-yl)phenyl]methyl}-3,4-dihydropyrimidin-4-one]
0.01 to 10 | COc1cccc(OC)c1-n1c(C2CCCC2)nc(O)c(Cc2ccc(-n3cc(F)ccc3=O)cc2)c1=O [Example 51, 2-cyclopentyl-3-(2,6-dimethoxyphenyl)-5-{[4-(5-fluoro-2-oxo-1,2-dihydropyridin-1-yl)phenyl]methyl}-6-hydroxy-3,4-dihydropyrimidin-4-one]
0.01 to 10 | COc1cccc(OC)c1-n1c(CCC(C)C)nc(O)c(Cc2ccc(-n3cc(F)ccc3=O)cc2)c1=O [Example 52, 3-(2,6-dimethoxyphenyl)-5-{[4-(5-fluoro-2-oxo-1,2-dihydropyridin-1-yl)phenyl]methyl}-6-hydroxy-2-(3-methylbutyl)-3,4-dihydropyrimidin-4-one]
0.01 to 10 | COc1cccc(OC)c1-n1c(CCC(C)C)nc(O)c(Cc2ccc(-n3cc(Cl)ccc3=O)cc2)c1=O [Example 53, 5-{[4-(5-chloro-2-oxo-1,2-dihydropyridin-1-yl)phenyl]methyl}-3-(2,6-dimethoxyphenyl)-6-hydroxy-2-(3-methylbutyl)-3,4-dihydropyrimidin-4-one]
0.01 to 10 | COc1cccc(OC)c1-n1c(CCC(C)C)nc(O)c(Cc2ccc(-n3cc(C)ccc3=O)cc2)c1=O [Example 54, 3-(2,6-dimethoxyphenyl)-6-hydroxy-5-{[4-(5-methyl-2-oxo-1,2-dihydropyridin-1-yl)phenyl]methyl}-2-(3-methylbutyl)-3,4-dihydropyrimidin-4-one]
0.01 to 10 | COc1cccc(OC)c1-n1c(CCC2CC2)nc(O)c(Cc2ccc(-n3cc(C)ccc3=O)cc2)c1=O [Example 55, 2-(2-cyclopropylethyl)-3-(2,6-dimethoxyphenyl)-6-hydroxy-5-{[4-(5-methyl-2-oxo-1,2-dihydropyridin-1-yl)phenyl]methyl}-3,4-dihydropyrimidin-4-one]
0.01 to 10 | COc1cccc(OC)c1-n1c(CCC2CC2)nc(O)c(Cc2ccc(-n3cc(F)ccc3=O)cc2)c1=O [Example 56, 2-(2-cyclopropylethyl)-3-(2,6-dimethoxyphenyl)-5-{[4-(5-fluoro-2-oxo-1,2-dihydropyridin-1-yl)phenyl]methyl}-6-hydroxy-3,4-dihydropyrimidin-4-one]
0.01 to 10 | COc1cccc(OC)c1-n1c(CCC2CC2)nc(O)c(Cc2ccc(-n3cc(Cl)ccc3=O)cc2)c1=O [Example 57, 5-{[4-(5-chloro-2-oxo-1,2-dihydropyridin-1-yl)phenyl]methyl}-2-(2-cyclopropylethyl)-3-(2,6-dimethoxyphenyl)-6-hydroxy-3,4-dihydropyrimidin-4-one]
0.01 to 10 | COc1cccc(OC)c1-n1c(COC(C)C)nc(O)c(Cc2ccc(-n3cc(C)ccc3=O)cc2)c1=O [Example 58, 3-(2,6-dimethoxyphenyl)-6-hydroxy-5-{[4-(5-methyl-2-oxo-1,2-dihydropyridin-1-yl)phenyl]methyl}-2-[(propan-2-yloxy)methyl]-3,4-dihydropyrimidin-4-one]
0.01 to 10 | COc1cccc(OC)c1-n1c(COC(C)C)nc(O)c(Cc2ccc(-n3cc(F)ccc3=O)cc2)c1=O [Example 59, 3-(2,6-dimethoxyphenyl)-5-{[4-(5-fluoro-2-oxo-1,2-dihydropyridin-1-yl)phenyl]methyl}-6-hydroxy-2-[(propan-2-yloxy)methyl]-3,4-dihydropyrimidin-4-one]
0.01 to 10 | COc1cccc(OC)c1-n1c(COC(C)C)nc(O)c(Cc2ccc(-n3cc(Cl)ccc3=O)cc2)c1=O [Example 60, 5-{[4-(5-chloro-2-oxo-1,2-dihydropyridin-1-yl)phenyl]methyl}-3-(2,6-dimethoxyphenyl)-6-hydroxy-2-[(propan-2-yloxy)methyl]-3,4-dihydropyrimidin-4-one]

Same assay, conditions: HEK293 cells stably expressing human APJ receptor; inhibition of forskolin-mediated cAMP production; read-out: Human APJ cAMP EC50 potency range

EC50 [nM] | Structure (SMILES)
0.01 to 10 | CCc1cccc(CC)c1-n1c(-c2ccn(C3CC3)n2)nc(=O)c(Cc2ccc(-c3ccnc(F)c3C)c(F)c2)c1O [Example 61, 2-(1-cyclopropyl-1H-pyrazol-3-yl)-1-(2,6-diethylphenyl)-5-(3-fluoro-4-(2-fluoro-3-methylpyridin-4-yl)benzyl)-6-hydroxypyrimidin-4(1H)-one]
